This note sets out measurements from US11427548B2 (Arvinas Operations, Inc., priority 2015, dated 2022).

Read-outs that look alike come from different tables or passages of the source.

The target in the experiment is T1, Androgen Receptor (Homo sapiens, UniProt P10275).
T1 construct: endogenous in cells; host or cells: VCaP cells
T1 sequence (P10275 1-920): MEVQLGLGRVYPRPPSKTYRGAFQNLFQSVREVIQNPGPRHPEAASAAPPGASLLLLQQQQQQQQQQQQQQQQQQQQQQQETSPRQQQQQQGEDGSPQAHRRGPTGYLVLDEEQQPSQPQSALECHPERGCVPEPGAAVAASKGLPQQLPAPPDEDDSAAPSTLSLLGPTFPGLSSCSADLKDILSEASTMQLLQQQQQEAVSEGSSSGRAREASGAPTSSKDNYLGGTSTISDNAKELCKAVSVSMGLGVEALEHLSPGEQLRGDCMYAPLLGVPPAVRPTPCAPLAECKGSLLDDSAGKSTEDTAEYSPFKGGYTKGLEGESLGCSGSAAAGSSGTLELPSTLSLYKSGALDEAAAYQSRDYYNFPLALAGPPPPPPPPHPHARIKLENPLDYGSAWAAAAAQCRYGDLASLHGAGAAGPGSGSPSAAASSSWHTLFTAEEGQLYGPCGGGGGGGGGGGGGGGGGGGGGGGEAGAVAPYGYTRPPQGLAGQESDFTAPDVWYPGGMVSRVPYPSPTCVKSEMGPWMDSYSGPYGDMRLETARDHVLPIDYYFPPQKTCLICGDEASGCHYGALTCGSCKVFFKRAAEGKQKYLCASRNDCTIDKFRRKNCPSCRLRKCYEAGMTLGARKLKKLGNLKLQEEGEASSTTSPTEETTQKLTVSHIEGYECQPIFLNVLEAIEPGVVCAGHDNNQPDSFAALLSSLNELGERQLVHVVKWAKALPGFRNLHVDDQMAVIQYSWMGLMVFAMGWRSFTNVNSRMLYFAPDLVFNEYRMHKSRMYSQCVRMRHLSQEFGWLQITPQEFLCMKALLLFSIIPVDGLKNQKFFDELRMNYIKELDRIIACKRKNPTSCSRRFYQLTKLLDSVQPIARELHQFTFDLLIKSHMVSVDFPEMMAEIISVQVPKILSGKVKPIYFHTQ
The experiment can be described thus: Androgen Receptor ELISA assay (PathScan AR ELISA) in VCaP cells: AR degradation, Dmax and DC50. In kind it is cell-based. The conditions noted are these: for DC50: read-out: VCaP DC50; for Dmax: VCaP, read-out: VCaP Dmax (%). Summed up: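 VCaP cells in phenol red-free RPMI with 5% charcoal-stripped FBS were grown at least 3 days, then given compound as 7 half-log doses in 0.1% DMSO with 0.1 nM R1881 for 24 h. Lysates went into a sandwich AR ELISA with TMB read at 450 nm.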

As to `Cc1ncsc1-c1ccc(CNC(=O)[C@@H]2C[C@@H](O)CN2C(=O)[C@H](C(C)C)N2Cc3ccc(N4CCN(CCCc5ccc(C(=O)N[C@H]6C(C)(C)[C@H](Oc7ccc(C#N)c(Cl)c7)C6(C)C)cc5)CC4)cc3C2=O)cc1` [Example 774, (2S,4R)-1-((S)-2-(6-(4-(3-(4-(((1r,3r)-3-(3-chloro-4-cyanophenoxy)-2,2,4,4-tetramethylcyclobutyl)carbamoyl)phenyl)propyl)piperazin-1-yl)-1-oxoisoindolin-2-yl)-3-methylbutanoyl)-4-hydroxy-N-(4-(4-methylthiazol-5-yl)benzyl)pyrrolidine-2-carboxamide], where the note is “VCaP cells, Table 36”, the DC50 was more than 501 nM and the Dmax was less than 25%.
As for `CC(C)(C)[C@H](NC(=O)COCCN1CCN(c2ccc(C(=O)N[C@H]3C(C)(C)[C@H](Oc4ccc(C#N)c(Cl)c4)C3(C)C)cn2)CC1)C(=O)N1C[C@H](O)C[C@H]1C(=O)NCc1cc(F)ccc1F` [Example 775, N-((1r,3r)-3-(3-chloro-4-cyanophenoxy)-2,2,4,4-tetramethylcyclobutyl)-6-(4-(2-(2-(((S)-1-((2S,4R)-2-((2,5-difluorobenzyl)carbamoyl)-4-hydroxypyrrolidin-1-yl)-3,3-dimethyl-1-oxobutan-2-yl)amino)-2-oxoethoxy)ethyl)piperazin-1-yl)nicotinamide], under “VCaP cells, Table 36”, the DC50 is more than 501 nM and the Dmax is less than 25%.
As to `CC(C)(C)c1ccc(CNC(=O)[C@@H]2C[C@@H](O)CN2C(=O)[C@@H](NC(=O)COCCN2CCN(c3ccc(C(=O)N[C@H]4C(C)(C)[C@H](Oc5ccc(C#N)c(Cl)c5)C4(C)C)cn3)CC2)C(C)(C)C)cc1` [Example 776, 6-(4-(2-(2-(((S)-1-((2S,4R)-2-((4-(tert-butyl)benzyl)carbamoyl)-4-hydroxypyrrolidin-1-yl)-3,3-dimethyl-1-oxobutan-2-yl)amino)-2-oxoethoxy)ethyl)piperazin-1-yl)-N-((1r,3r)-3-(3-chloro-4-cyanophenoxy)-2,2,4,4-tetramethylcyclobutyl) nicotinamide], where the note is “VCaP cells, Table 36”, the half-maximal degradation concentration (DC50) is more than 501 nM and the Dmax was less than 25%.
Consider `Cc1ncsc1-c1ccc([C@H](C)NC(=O)[C@@H]2C[C@@H](O)CN2C(=O)[C@@H](C(C)C)N2Cc3ccc(N4CCN(CCCc5ccc(C(=O)N[C@H]6C(C)(C)[C@H](Oc7ccc(C#N)c(Cl)c7)C6(C)C)cc5)CC4)cc3C2=O)cc1` [Example 777, (2S,4R)-1-((R)-2-(6-(4-(3-(4-(((1r,3r)-3-(3-chloro-4-cyanophenoxy)-2,2,4,4-tetramethylcyclobutyl)carbamoyl)phenyl)propyl)piperazin-1-yl)-1-oxoisoindolin-2-yl)-3-methylbutanoyl)-4-hydroxy-N-((S)-1-(4-(4-methylthiazol-5-yl)phenyl)ethyl)pyrrolidine-2-carboxamide], for which the Dmax was less than 25%. Moreover, the DC50 (VCaP cells, Table 36) was more than 501 nM.
The corresponding values for `Cc1ncsc1-c1ccc([C@H](C)NC(=O)[C@@H]2C[C@@H](O)CN2C(=O)[C@H](C(C)C)N2Cc3ccc(N4CCN(CCCc5ccc(C(=O)N[C@H]6C(C)(C)[C@H](Oc7ccc(C#N)c(Cl)c7)C6(C)C)cc5)CC4)cc3C2=O)cc1` [Example 778, (2S,4R)-1-((S)-2-(6-(4-(3-(4-(((1r,3r)-3-(3-chloro-4-cyanophenoxy)-2,2,4,4-tetramethylcyclobutyl)carbamoyl)phenyl)propyl)piperazin-1-yl)-1-oxoisoindolin-2-yl)-3-methylbutanoyl)-4-hydroxy-N-((S)-1-(4-(4-methylthiazol-5-yl)phenyl)ethyl)pyrrolidine-2-carboxamide] are less than 25% and more than 501 nM.
Turning to `Cc1ncsc1-c1ccc([C@H](C)NC(=O)[C@@H]2C[C@@H](O)CN2C(=O)[C@@H](NC(=O)CCCCN2CCN(c3ccc(C(=O)N[C@H]4C(C)(C)[C@H](Oc5ccc(C#N)c(Cl)c5)C4(C)C)cn3)CC2)C(C)(C)C)cc1` [Example 779, N-((1r,3r)-3-(3-chloro-4-cyanophenoxy)-2,2,4,4-tetramethylcyclobutyl)-6-(4-(5-(((S)-1-((2S,4R)-4-hydroxy-2-(((S)-1-(4-(4-methylthiazol-5-yl)phenyl)ethyl)carbamoyl)pyrrolidin-1-yl)-3,3-dimethyl-1-oxobutan-2-yl)amino)-5-oxopentyl)piperazin-1-yl)nicotinamide], under “VCaP cells, Table 36”, the DC50 is more than 501 nM and the Dmax is less than 25%.
For `Cc1ncsc1-c1ccc([C@H](CO)NC(=O)[C@@H]2C[C@@H](O)CN2C(=O)[C@@H](NC(=O)CCCCN2CCN(c3ccc(C(=O)N[C@H]4C(C)(C)[C@H](Oc5ccc(C#N)c(Cl)c5)C4(C)C)cn3)CC2)C(C)(C)C)cc1` [Example 780, N-((1r,3r)-3-(3-chloro-4-cyanophenoxy)-2,2,4,4-tetramethylcyclobutyl)-6-(4-(5-(((S)-1-((2S,4R)-4-hydroxy-2-(((R)-2-hydroxy-1-(4-(4-methylthiazol-5-yl)phenyl)ethyl)carbamoyl)pyrrolidin-1-yl)-3,3-dimethyl-1-oxobutan-2-yl)amino)-5-oxopentyl)piperazin-1-yl)nicotinamide], for the setting “VCaP cells, Table 36”, the DC50 was less than 50 nM and the Dmax was 26 to 50%.
For `Cc1ncsc1-c1ccc(C(CO)NC(=O)[C@@H]2C[C@@H](O)CN2C(=O)[C@@H](NC(=O)CCCN2CCN(c3ccc(C(=O)N[C@H]4C(C)(C)[C@H](Oc5ccc(C#N)c(Cl)c5)C4(C)C)cn3)CC2)C(C)(C)C)cc1` (stereo partly drawn) [Example 781, N-((1r,3r)-3-(3-chloro-4-cyanophenoxy)-2,2,4,4-tetramethylcyclobutyl)-6-(4-(4-(((S)-1-((2S,4R)-4-hydroxy-2-(((R)-2-hydroxy-1-(4-(4-methylthiazol-5-yl)phenyl)ethyl)carbamoyl)pyrrolidin-1-yl)-3,3-dimethyl-1-oxobutan-2-yl)amino)-4-oxobutyl)piperazin-1-yl)nicotinamide], where the note is “VCaP cells, Table 36”, the DC50 was more than 501 nM and the Dmax lay in the range of 26 to 50%.
On to `Cc1ncsc1-c1ccc([C@H](C)NC(=O)C2C[C@@H](O)CN2C(=O)[C@@H](NC(=O)COCCN2CCCN(c3ccc(C(=O)N[C@H]4C(C)(C)[C@H](Oc5ccc(C#N)c(Cl)c5)C4(C)C)cn3)CC2)C(C)(C)C)cc1` (stereo partly drawn) [Example 782, N-((1r,3r)-3-(3-chloro-4-cyanophenoxy)-2,2,4,4-tetramethylcyclobutyl)-6-(4-(2-(2-(((S)-1-((2S,4R)-4-hydroxy-2-(((S)-1-(4-(4-methylthiazol-5-yl)phenyl)ethyl)carbamoyl)pyrrolidin-1-yl)-3,3-dimethyl-1-oxobutan-2-yl)amino)-2-oxoethoxy)ethyl)-1,4-diazepan-1-yl)nicotinamide], for which, under “VCaP cells, Table 36”, the DC50 was less than 50 nM and the Dmax is more than 71%.
For the compound `Cc1ncsc1-c1ccc([C@H](C)NC(=O)[C@@H]2C[C@@H](O)CN2C(=O)[C@@H](NC(=O)CN2CCN(CCCc3ccc(C(=O)N[C@H]4C(C)(C)[C@H](Oc5ccc(C#N)c(Cl)c5)C4(C)C)cc3)CC2)C(C)(C)C)cc1` [Example 783, (2S,4R)-1-((S)-2-(2-(4-(3-(4-(((1r,3r)-3-(3-chloro-4-cyanophenoxy)-2,2,4,4-tetramethylcyclobutyl)carbamoyl)phenyl)propyl)piperazin-1-yl)acetamido)-3,3-dimethylbutanoyl)-4-hydroxy-N-((S)-1-(4-(4-methylthiazol-5-yl)phenyl)ethyl)pyrrolidine-2-carboxamide], for the setting “VCaP cells, Table 36”, the DC50 is less than 50 nM and the Dmax was more than 71%.
